Laboratory results taken from patent US20080260896A1 (priority 2007, published 2008).
Marks after values point to notes of the source that are not given here.

Assay: Crude glycerin in finishing cattle diets: animal performance (weight, ADG, DMI, gain/feed)
Type: in vivo, Angus-cross steers
Conditions: 10% DM glycerin
Description: All cattle were adapted on a common 4-step transition prior to initiation of the evaluation. Cattle were blocked by weight (4 blocks) with four pens per treatment (9-10 head/pen). […] Individual weights were collected at 28-day intervals throughout with steers terminated on three harvest dates (days on feed 116 to 153 days) based on weight and condition. Six monthly periods and cumulative (d 1-116 and 1-153) periods were analyzed.

[1] = Day 1-28, DDGS:Soy Hulls 10:0 diet (Treatment 2)
[2] = Day 1-28, DDGS:Soy Hulls 30:15 diet (Treatment 4)
[3] = Day 1-28, main effect over both diets
[4] = Day 1-116, DDGS:Soy Hulls 10:0 diet (Treatment 2)
[5] = Day 1-116, DDGS:Soy Hulls 30:15 diet (Treatment 4)
[6] = Day 1-116, main effect over both diets
[7] = Day 1-153, DDGS:Soy Hulls 10:0 diet (Treatment 2)
[8] = Day 1-153, DDGS:Soy Hulls 30:15 diet (Treatment 4)
[9] = Day 1-153, main effect over both diets
[10] = Day 29-56, DDGS:Soy Hulls 10:0 diet (Treatment 2)
[11] = Day 29-56, DDGS:Soy Hulls 30:15 diet (Treatment 4)
[12] = Day 29-56, main effect over both diets
[13] = Day 57-84, DDGS:Soy Hulls 10:0 diet (Treatment 2)
[14] = Day 57-84, DDGS:Soy Hulls 30:15 diet (Treatment 4)
[15] = Day 57-84, main effect over both diets
[16] = Day 85-116, DDGS:Soy Hulls 10:0 diet (Treatment 2)
[17] = Day 85-116, DDGS:Soy Hulls 30:15 diet (Treatment 4)
[18] = Day 85-116, main effect over both diets
[19] = Day 117-132, DDGS:Soy Hulls 10:0 diet (Treatment 2)
[20] = Day 117-132, DDGS:Soy Hulls 30:15 diet (Treatment 4)
[21] = Day 117-132, main effect over both diets

**Q.** What does the source list for `OCC(O)CO` [crude glycerin, glycerin]?
**A.** Average Daily Gain [1]: 1.46^a kg/hd/d; Dry Matter Intake [1]: 7.97^c kg/hd/d; Gain/Feed, ×100 [1]: 18.27^a; Average Daily Gain [2]: 1.31^ab kg/hd/d; Dry Matter Intake [2]: 8.34^bc kg/hd/d; Gain/Feed, ×100 [2]: 15.64^b; Average Daily Gain [3]: 1.38 kg/hd/d; Dry Matter Intake [3]: 8.16 kg/hd/d; Gain/Feed, ×100 [3]: 16.96; Average Daily Gain [4]: 1.30 kg/hd/d; Dry Matter Intake [4]: 8.31^c kg/hd/d; Gain/Feed, ×100 [4]: 15.66^a; Average Daily Gain [5]: 1.27 kg/hd/d; Dry Matter Intake [5]: 8.95^b kg/hd/d; Gain/Feed, ×100 [5]: 14.28^b; Average Daily Gain [6]: 1.29 kg/hd/d; Dry Matter Intake [6]: 8.63 kg/hd/d; Gain/Feed, ×100 [6]: 14.97; Average Daily Gain [7]: 1.27^a kg/hd/d; Dry Matter Intake [7]: 8.37^c kg/hd/d; Gain/Feed, ×100 [7]: 15.21^a; Average Daily Gain [8]: 1.21^ab kg/hd/d; Dry Matter Intake [8]: 8.99^b kg/hd/d; Gain/Feed, ×100 [8]: 13.43^b; Average Daily Gain [9]: 1.24 kg/hd/d; Dry Matter Intake [9]: 8.68 kg/hd/d; Gain/Feed, ×100 [9]: 14.32; Weight (Day 28, DDGS:Soy Hulls 10:0 diet (Treatment 2)): 428.2^a kg; Weight (Day 28, DDGS:Soy Hulls 30:15 diet (Treatment 4)): 423.9^ab kg; Weight (Day 28, main effect over both diets): 426.1 kg; Average Daily Gain [10]: 1.53 kg/hd/d; Dry Matter Intake [10]: 8.78^c kg/hd/d; Gain/Feed, ×100 [10]: 17.43^a; Average Daily Gain [11]: 1.66 kg/hd/d; Dry Matter Intake [11]: 9.95^b kg/hd/d; Gain/Feed, ×100 [11]: 16.78^a; Average Daily Gain [12]: 1.60 kg/hd/d; Dry Matter Intake [12]: 9.36 kg/hd/d; Gain/Feed, ×100 [12]: 17.10; Weight (Day 56, DDGS:Soy Hulls 10:0 diet (Treatment 2)): 471.2 kg; Weight (Day 56, DDGS:Soy Hulls 30:15 diet (Treatment 4)): 470.5 kg; Weight (Day 56, main effect over both diets): 470.9 kg; Average Daily Gain [13]: 1.29 kg/hd/d; Dry Matter Intake [13]: 8.84^b kg/hd/d; Gain/Feed, ×100 [13]: 14.64; Average Daily Gain [14]: 1.25 kg/hd/d; Dry Matter Intake [14]: 9.37^b kg/hd/d; Gain/Feed, ×100 [14]: 13.36; Average Daily Gain [15]: 1.27 kg/hd/d; Dry Matter Intake [15]: 9.11 kg/hd/d; Gain/Feed, ×100 [15]: 14.00; Weight (Day 84, DDGS:Soy Hulls 10:0 diet (Treatment 2)): 507.3 kg; Weight (Day 84, DDGS:Soy Hulls 30:15 diet (Treatment 4)): 505.4 kg; Weight (Day 84, main effect over both diets): 506.4 kg; Average Daily Gain [16]: 0.97 kg/hd/d; Dry Matter Intake [16]: 7.74^c kg/hd/d; Gain/Feed, ×100 [16]: 12.47; Average Daily Gain [17]: 0.93 kg/hd/d; Dry Matter Intake [17]: 8.25^bc kg/hd/d; Gain/Feed, ×100 [17]: 11.22; Average Daily Gain [18]: 0.95 kg/hd/d; Dry Matter Intake [18]: 8.00 kg/hd/d; Gain/Feed, ×100 [18]: 11.84; Weight (Day 116, DDGS:Soy Hulls 10:0 diet (Treatment 2)): 538.3 kg; Weight (Day 116, DDGS:Soy Hulls 30:15 diet (Treatment 4)): 535.1 kg; Weight (Day 116, main effect over both diets): 536.7 kg; Average Daily Gain [19]: 1.46 kg/hd/d; Dry Matter Intake [19]: 8.67^ab kg/hd/d; Gain/Feed, ×100 [19]: 17.25; Average Daily Gain [20]: 1.26 kg/hd/d; Dry Matter Intake [20]: 9.54^ab kg/hd/d; Gain/Feed, ×100 [20]: 12.86; Average Daily Gain [21]: 1.36 kg/hd/d; Dry Matter Intake [21]: 9.11 kg/hd/d
